These are literature values, as cited in PMC8823334 (ACS chemical neuroscience, 2021).

In data set [1] the target is T1, PAR4 (Homo sapiens, UniProt Q96RI0).
T1 sequence (Q96RI0 18-385): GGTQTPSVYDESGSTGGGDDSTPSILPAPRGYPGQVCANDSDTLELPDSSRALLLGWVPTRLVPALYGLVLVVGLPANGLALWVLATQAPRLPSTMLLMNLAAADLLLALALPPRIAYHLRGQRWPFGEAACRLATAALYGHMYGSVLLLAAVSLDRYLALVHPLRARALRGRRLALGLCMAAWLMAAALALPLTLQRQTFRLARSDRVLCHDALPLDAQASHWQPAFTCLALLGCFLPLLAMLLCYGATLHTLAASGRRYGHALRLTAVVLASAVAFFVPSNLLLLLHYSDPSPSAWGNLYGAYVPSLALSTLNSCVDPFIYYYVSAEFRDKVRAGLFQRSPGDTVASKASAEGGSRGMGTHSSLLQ

Data set [2] deals with PAR4. Conditions: mice, suppression of neuroinflammation in astrocytes.

Regarding `COc1cc(OCc2nc(N3CCOCC3)sc2C)c2cc(-c3cn4nc(OC)sc4n3)oc2c1` [Compound 1], in data set [1], the “mode of PAR4 inhibition” value was “noncompetitive mode of inhibition”. Further, the “protection against traumatic brain injury” value in data set [2] was “protected against traumatic brain injury (TBI) in mice”.
